Laboratory results published in US20260027068A1, “METHODS OF ADM[…]-KETAMINE” (Perception Neuroscience, Inc., priority 2022, published 2026).

Test system: subjects with TRD
Assay: Adverse events (TEAEs, SAEs) in the TRD study
Assay type: in vivo, human
Settings: 30 mg (n = 33)
Source text: The definitions of an AE and SAE can be found in Section F. AEs were reported by the subject (or, when appropriate, by a caregiver, surrogate, or the subject's legally authorized representative). The Investigator and any designees were responsible for detecting, documenting, and recording events that meet the definition of an AE or SAE and remained responsible for following up AEs that were serious, considered related to the study treatment or study procedures, or that caused the subject to discontinue from the study.
All AEs were collected from the signing of the ICF until the second follow-up visit (Day 15) at the time points specified in the Schedule of Activities (Section C). Medical occurrences that began before the start of study treatment but after obtaining informed consent were recorded on the Medical History/Current Medical Conditions section of the CRF, not the AE section. All SAEs were recorded and reported to the Sponsor or designee within 24 hours as indicated in Section F. The Investigator submitted any updated SAE data to the Sponsor or designee within 24 hours of it being available. Investigators were not obligated to actively seek AE or SAE information after the conclusion of study participation. However, if the Investigator learns of any SAE, including a death, at any time after a subject has been discharged from the study, and he/she considers the event to be reasonably related to the study treatment or study participation, the Investigator must promptly notify the Sponsor or designee. The method of recording, evaluating, and assessing the causality of AEs and SAEs and the procedures for completing and transmitting SAE reports are provided in Section F.
An AE is any untoward medical occurrence in a patient or subject, temporally associated with the use of study treatment, whether or not considered related to the study treatment. An AE can therefore be any unfavorable and unintended sign (including an abnormal laboratory finding), symptom, or disease (new or exacerbated) temporally associated with the use of study treatment.
If an event is not an AE per the definition above, then it cannot be an SAE even if serious conditions are met (e.g., hospitalization for signs/symptoms of the disease under study). A Serious Adverse Event (SAE) is defined as any untoward medical occurrence that, at any dose: a) results in death; b) is life-threatening; c) requires inpatient hospitalization or prolongation of existing hospitalization; d) results in persistent disability/incapacity; or e) is a congenital anomaly/birth defect. The term “life-threatening” in the definition of “serious” refers to an event in which the subject was at risk of death at the time of the event. […] In general, hospitalization signifies that the subject has been detained (usually involving at least an overnight stay) at the hospital or emergency ward for observation and/or treatment that would not have been appropriate in the physician's office or outpatient setting. Complications that occur during hospitalization are AEs. If a complication prolongs hospitalization or fulfills any other serious criteria, the event is serious. When in doubt as to whether “hospitalization” occurred or was necessary, the AE should be considered serious. […] The term disability means a substantial disruption of a person's ability to conduct normal life functions.
(MedDRA; Version 23.0 or higher). Treatment-emergent adverse events (TEAEs) are AEs with onset or worsening after the start of study treatment. The AE summaries will be primarily based on TEAEs. The number and percentage of subjects with TEAEs will be summarized by treatment group, system organ class, and preferred term for all TEAEs, treatment-related TEAEs, SAEs, serious TEAEs, severe TEAEs, TEAEs of special interest, and all TEAEs leading to study drug discontinuation. All TEAEs will be further summarized by maximum severity and causality. The TEAEs of special interest will be identified in the SAP. […]

CN[C@@]1(c2ccccc2Cl)CCCCC1=O [PCN 101]
Number of subjects with any treatment-emergent adverse events: 11 | Number of treatment-emergent adverse events: 22 | Subjects with any treatment-emergent adverse events: (%) of subjects: (33) | TEAE PT Alopecia: (%) of subjects: (0) | TEAE PT Alopecia: number of subjects: 0 | TEAE PT Aversion: (%) of subjects: (0) | TEAE PT Aversion: number of subjects: 0 | TEAE PT Balance disorder: (%) of subjects: (0) | TEAE PT Balance disorder: number of subjects: 0 | TEAE PT Blood pressure increased: (%) of subjects: (0) | TEAE PT Blood pressure increased: number of subjects: 0 | TEAE PT Bruxism: (%) of subjects: (0) | TEAE PT Bruxism: number of subjects: 0 | TEAE PT Confusional state: (%) of subjects: (0) | TEAE PT Confusional state: number of subjects: 0 | TEAE PT Defect conduction intraventricular: (%) of subjects: (0) | TEAE PT Defect conduction intraventricular: number of subjects: 0 | TEAE PT Derealisation: (%) of subjects: (12) | TEAE PT Derealisation: number of subjects: 4 | TEAE PT Diarrhoea: (%) of subjects: (0) | TEAE PT Diarrhoea: number of subjects: 0 | TEAE PT Dissociation: (%) of subjects: (0) | TEAE PT Dissociation: number of subjects: 0 | TEAE PT Dizziness: (%) of subjects: (6) | TEAE PT Dizziness: number of subjects: 2 | TEAE PT Dry mouth: (%) of subjects: (0) | TEAE PT Dry mouth: number of subjects: 0 | TEAE PT Dysarthria: (%) of subjects: (0) | TEAE PT Dysarthria: number of subjects: 0 | TEAE PT Dyspnoea exertional: (%) of subjects: (3) | TEAE PT Dyspnoea exertional: number of subjects: 1 | TEAE PT Energy increased: (%) of subjects: (0) | TEAE PT Energy increased: number of subjects: 0 | TEAE PT Euphoric mood: (%) of subjects: (0) | TEAE PT Euphoric mood: number of subjects: 0 | TEAE PT Fatigue: (%) of subjects: (0) | TEAE PT Fatigue: number of subjects: 0 | TEAE PT Feeling abnormal: (%) of subjects: (0) | TEAE PT Feeling abnormal: number of subjects: 0 | TEAE PT Feeling drunk: (%) of subjects: (0) | TEAE PT Feeling drunk: number of subjects: 0 | TEAE PT Haematuria: (%) of subjects: (3) | TEAE PT Haematuria: number of subjects: 1 | TEAE PT Headache: (%) of subjects: (9) | TEAE PT Headache: number of subjects: 3 | TEAE PT Hyperacusis: (%) of subjects: (0) | TEAE PT Hyperacusis: number of subjects: 0 | TEAE PT Hyperhidrosis: (%) of subjects: (3) | TEAE PT Hyperhidrosis: number of subjects: 1 | TEAE PT Hyperphagia: (%) of subjects: (0) | TEAE PT Hyperphagia: number of subjects: 0 | TEAE PT Hypoaesthesia oral: (%) of subjects: (0) | TEAE PT Hypoaesthesia oral: number of subjects: 0 | TEAE PT Hypoaesthesia: (%) of subjects: (0) | TEAE PT Hypoaesthesia: number of subjects: 0 | TEAE PT Increased appetite: (%) of subjects: (0) | TEAE PT Increased appetite: number of subjects: 0 | TEAE PT Influenza like illness: (%) of subjects: (0) | TEAE PT Influenza like illness: number of subjects: 0 | TEAE PT Infusion site hypoaesthesia: (%) of subjects: (0) | TEAE PT Infusion site hypoaesthesia: number of subjects: 0 | TEAE PT Left ventricular hypertrophy: (%) of subjects: (0) | TEAE PT Left ventricular hypertrophy: number of subjects: 0 | TEAE PT Lethargy: (%) of subjects: (0) | TEAE PT Lethargy: number of subjects: 0 | TEAE PT Limb discomfort: (%) of subjects: (0) | TEAE PT Limb discomfort: number of subjects: 0 | TEAE PT Logorrhoea: (%) of subjects: (0) | TEAE PT Logorrhoea: number of subjects: 0 | TEAE PT Memory impairment: (%) of subjects: (0) | TEAE PT Memory impairment: number of subjects: 0 | TEAE PT Muscle strain: (%) of subjects: (3) | TEAE PT Muscle strain: number of subjects: 1 | TEAE PT Muscular weakness: (%) of subjects: (0) | TEAE PT Muscular weakness: number of subjects: 0 | TEAE PT Nausea: (%) of subjects: (0) | TEAE PT Nausea: number of subjects: 0 | TEAE PT Paraesthesia: (%) of subjects: (0) | TEAE PT Paraesthesia: number of subjects: 0 | TEAE PT Rhinorrhoea: (%) of subjects: (0) | TEAE PT Rhinorrhoea: number of subjects: 0 | TEAE PT Sedation: (%) of subjects: (0) | TEAE PT Sedation: number of subjects: 0 | TEAE PT Sensory disturbance: (%) of subjects: (3) | TEAE PT Sensory disturbance: number of subjects: 1 | TEAE PT Sinusitis: (%) of subjects: (0) | TEAE PT Sinusitis: number of subjects: 0 | TEAE PT Skin abrasion: (%) of subjects: (0) | TEAE PT Skin abrasion: number of subjects: 0 | TEAE PT Slow speech: (%) of subjects: (0) | TEAE PT Slow speech: number of subjects: 0 | TEAE PT Smoke sensitivity: (%) of subjects: (0) | TEAE PT Smoke sensitivity: number of subjects: 0 | TEAE PT Somnolence: (%) of subjects: (12) | TEAE PT Somnolence: number of subjects: 4 | TEAE PT Tachycardia: (%) of subjects: (0) | TEAE PT Tachycardia: number of subjects: 0 | TEAE PT Throat tightness: (%) of subjects: (0) | TEAE PT Throat tightness: number of subjects: 0 | TEAE PT Time perception altered: (%) of subjects: (0) | TEAE PT Time perception altered: number of subjects: 0 | TEAE PT Urinary tract infection: (%) of subjects: (3) | TEAE PT Urinary tract infection: number of subjects: 1 | TEAE PT Venous injury: (%) of subjects: (0) | TEAE PT Venous injury: number of subjects: 0 | TEAE PT Vertigo: (%) of subjects: (3) | TEAE PT Vertigo: number of subjects: 1 | TEAE PT Vessel puncture site erythema: (%) of subjects: (3) | TEAE PT Vessel puncture site erythema: number of subjects: 1 | TEAE PT Vision blurred: (%) of subjects: (0) | TEAE PT Vision blurred: number of subjects: 0 | TEAE PT Visual impairment: (%) of subjects: (0) | TEAE PT Visual impairment: number of subjects: 0 | TEAE SOC Cardiac disorders: (%) of subjects: (0) | TEAE SOC Cardiac disorders: number of subjects: 0 | TEAE SOC Ear and labyrinth disorders: (%) of subjects: (3) | TEAE SOC Ear and labyrinth disorders: number of subjects: 1 | TEAE SOC Eye disorders: (%) of subjects: (0) | TEAE SOC Eye disorders: number of subjects: 0 | TEAE SOC Gastrointestinal disorders: (%) of subjects: (0) | TEAE SOC Gastrointestinal disorders: number of subjects: 0 | TEAE SOC General disorders and administration site conditions: (%) of subjects: (3) | TEAE SOC General disorders and administration site conditions: number of subjects: 1 | TEAE SOC Immune system disorders: (%) of subjects: (0) | TEAE SOC Immune system disorders: number of subjects: 0 | TEAE SOC Infections and infestations: (%) of subjects: (3) | TEAE SOC Infections and infestations: number of subjects: 1 | TEAE SOC Injury, poisoning and procedural complications: (%) of subjects: (3) | TEAE SOC Injury, poisoning and procedural complications: number of subjects: 1 | TEAE SOC Investigations: (%) of subjects: (0) | TEAE SOC Investigations: number of subjects: 0 | TEAE SOC Metabolism and nutrition disorders: (%) of subjects: (0) | TEAE SOC Metabolism and nutrition disorders: number of subjects: 0 | TEAE SOC Musculoskeletal and connective tissue disorders: (%) of subjects: (0) | TEAE SOC Musculoskeletal and connective tissue disorders: number of subjects: 0 | TEAE SOC Nervous system disorders: (%) of subjects: (27) | TEAE SOC Nervous system disorders: number of subjects: 9 | TEAE SOC Psychiatric disorders: (%) of subjects: (12) | TEAE SOC Psychiatric disorders: number of subjects: 4 | TEAE SOC Renal and urinary disorders: (%) of subjects: (3) | TEAE SOC Renal and urinary disorders: number of subjects: 1 | TEAE SOC Respiratory, thoracic and mediastinal disorders: (%) of subjects: (3) | TEAE SOC Respiratory, thoracic and mediastinal disorders: number of subjects: 1 | TEAE SOC Skin and subcutaneous tissue disorders: (%) of subjects: (3) | TEAE SOC Skin and subcutaneous tissue disorders: number of subjects: 1
